pIC50: −log10 of the molar value.
How the values were obtained:
Assay in all cases: cells
ME-180 = format: functional, cell-based, Homo sapiens;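 note: cell viability assay measuring growth inhibition of ME-180 cells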
Description: SANGER: Inhibition of human ME-180 cell growth in a cell viability assay.

SK-HEP1 = format: functional, cell-based, Homo sapiens, SK-HEP-1;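 note: cell viability readout used to quantify reduction in proliferation of human SK-HEP-1 cells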
Description: SANGER: Inhibition of human SK-HEP-1 cell growth in a cell viability assay.

Capan-2 = format: functional, cell-based, Homo sapiens;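 note: Capan-2 cell growth inhibition, read out with a viability assay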
Description: SANGER: Inhibition of human Capan-2 cell growth in a cell viability assay.

Detroit 562 = format: functional, cell-based, Homo sapiens;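 note: growth inhibition of human Detroit 562 cells, read out by a cell viability assay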
Description: SANGER: Inhibition of human Detroit562 cell growth in a cell viability assay.

CAL-12T = format: functional, cell-based, Homo sapiens;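 note: growth inhibition of human CAL-12T cells, read out with a cell viability assay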
Description: SANGER: Inhibition of human CAL-12T cell growth in a cell viability assay.

HCC1806 = format: functional, cell-based, Homo sapiens;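 note: growth inhibition of the cancer cell line, determined with a cell viability assay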
Description: SANGER: Inhibition of human HCC1806 cell growth in a cell viability assay.

NCI-H1993 = format: functional, cell-based, Homo sapiens;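 note: growth inhibition of the cancer cell line, assessed with a cell viability assay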
Description: SANGER: Inhibition of human NCI-H1993 cell growth in a cell viability assay.

CAL-85-1 = format: functional, cell-based, Homo sapiens;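 note: growth inhibition of human CAL-85-1 cells, read out with a cell viability assay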
Description: SANGER: Inhibition of human CAL-85-1 cell growth in a cell viability assay.

BFTC-905 = format: functional, cell-based, Homo sapiens
Description: SANGER: Inhibition of human BFTC-905 cell growth in a cell viability assay.

SK-OV-3 = format: functional, cell-based, Homo sapiens;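 note: growth inhibition of SK-OV-3 human cells, read out with a cell viability assay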
Description: SANGER: Inhibition of human SK-OV-3 cell growth in a cell viability assay.

NCI-H522 = format: functional, cell-based, Homo sapiens; conditions: Homo sapiens, NCI-H522;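 note: cell viability assay measuring growth inhibition of human NCI-H522 cells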
Description: SANGER: Inhibition of human NCI-H522 cell growth in a cell viability assay.

KOSC-2 = format: functional, cell-based, Homo sapiens;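 note: growth inhibition of KOSC-2 cells, read out by a cell viability assay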
Description: SANGER: Inhibition of human KOSC-2 cell growth in a cell viability assay.

RPMI-2650 = format: functional, cell-based, Homo sapiens
Description: SANGER: Inhibition of human RPMI-2650 cell growth in a cell viability assay.

GP5d = format: functional, cell-based, Homo sapiens;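 note: growth inhibition of human GP5d cells, read out with a cell viability assay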
Description: SANGER: Inhibition of human GP5d cell growth in a cell viability assay.

KP-N-YN = format: functional, cell-based, Homo sapiens;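 note: growth inhibition of KP-N-YN cells, read out with a cell viability assay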
Description: SANGER: Inhibition of human KP-N-YN cell growth in a cell viability assay.

CHP-212 = format: functional, cell-based, Homo sapiens
Description: SANGER: Inhibition of human CHP-212 cell growth in a cell viability assay.

HCC38 = format: functional, cell-based, Homo sapiens;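 note: cell viability assay on the human HCC38 cell line, with IC50 marking the concentration that inhibits cell growth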
Description: SANGER: Inhibition of human HCC38 cell growth in a cell viability assay.

KYSE-150 cell line = format: functional, cell-based, Homo sapiens;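 note: growth inhibition of human KYSE-150 cells, read out with a cell viability assay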
Description: SANGER: Inhibition of human KYSE-150 cell growth in a cell viability assay.

CAL-51 = format: functional, cell-based, Homo sapiens;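 note: human CAL-51 cell line, growth inhibition read out via a cell viability assay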
Description: SANGER: Inhibition of human CAL-51 cell growth in a cell viability assay.

NCI-H1792 = format: functional, cell-based, Homo sapiens;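 note: growth inhibition of human NCI-H1792 cells, read out as cell viability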
Description: SANGER: Inhibition of human NCI-H1792 cell growth in a cell viability assay.

RMG-I = format: functional, cell-based, Homo sapiens;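 note: growth inhibition of human RMG-I cells, read out with a cell viability assay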
Description: SANGER: Inhibition of human RMG-I cell growth in a cell viability assay.

OAW-28 = format: functional, cell-based, Homo sapiens;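 note: growth inhibition of OAW-28 cells, read out with a cell viability assay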
Description: SANGER: Inhibition of human OAW-28 cell growth in a cell viability assay.

U-251 = format: functional, cell-based, Homo sapiens;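 note: growth inhibition of human U-251 cells, read out through a cell viability assay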
Description: SANGER: Inhibition of human U251 cell growth in a cell viability assay.

SJRH30 = format: functional, cell-based, Homo sapiens;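 note: growth inhibition of human SJRH30 cells, read out with a cell viability assay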
Description: SANGER: Inhibition of human SJRH30 cell growth in a cell viability assay.

MIA PaCa-2 = format: functional, cell-based, Homo sapiens;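 note: growth inhibition of MIA PaCa-2 cells, read out with a cell viability assay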
Description: SANGER: Inhibition of human MIA-PaCa-2 cell growth in a cell viability assay.

MHH-ES-1 = format: functional, cell-based, Homo sapiens;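 note: cell growth inhibition measured by a cell viability assay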
Description: SANGER: Inhibition of human MHH-ES-1 cell growth in a cell viability assay.

HT-1376 = format: functional, cell-based, Homo sapiens
Description: SANGER: Inhibition of human HT-1376 cell growth in a cell viability assay.

CAKI-1 = format: functional, cell-based, Homo sapiens;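 note: growth inhibition of CAKI-1 cells, measured by a cell viability assay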
Description: SANGER: Inhibition of human CAKI-1 cell growth in a cell viability assay.

HuO9 = format: functional, cell-based, Homo sapiens;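 note: growth inhibition of HuO9 cells, read out with a cell viability assay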
Description: SANGER: Inhibition of human HuO9 cell growth in a cell viability assay.

ABC-1 = format: functional, cell-based, Homo sapiens;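 note: growth inhibition of human ABC-1 cells, read out by a cell viability assay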
Description: SANGER: Inhibition of human ABC-1 cell growth in a cell viability assay.

M059J = format: functional, cell-based, Homo sapiens;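 note: growth inhibition of M059J cells, read out with a cell viability assay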
Description: SANGER: Inhibition of human M059J cell growth in a cell viability assay.

D-423MG = format: functional, cell-based, Homo sapiens
Description: SANGER: Inhibition of human D-423MG cell growth in a cell viability assay.

NCI-H1048 = format: functional, cell-based, Homo sapiens;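 note: growth inhibition of human NCI-H1048 cells, read out with a cell viability assay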
Description: SANGER: Inhibition of human NCI-H1048 cell growth in a cell viability assay.

NCI-H358 = format: functional, cell-based, Homo sapiens;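 note: growth inhibition of NCI-H358 human cells, read out with a cell viability assay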
Description: SANGER: Inhibition of human NCI-H358 cell growth in a cell viability assay.

A 172 = format: functional, cell-based, Homo sapiens;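 note: growth inhibition of A172 cells, measured with a cell viability readout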
Description: SANGER: Inhibition of human A172 cell growth in a cell viability assay.

HCT-15 = format: functional, cell-based, Homo sapiens;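 note: cell viability readout, IC50 reflecting suppression of HCT-15 cell growth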
Description: SANGER: Inhibition of human HCT-15 cell growth in a cell viability assay.

UACC-893 = format: functional, cell-based, Homo sapiens
Description: SANGER: Inhibition of human UACC-893 cell growth in a cell viability assay.

For Cn1cnc2c(F)c(Nc3ccc(Br)cc3Cl)c(C(=O)NOCCO)cc21 [SELUMETINIB], the pIC50 (ME-180; Homo sapiens, ME-180) was < 5.40, the pIC50 (SK-HEP1; Homo sapiens, SK-HEP1) was 5.64 and the pIC50 (Capan-2; Homo sapiens, Capan-2) was < 5.40. The pIC50 (Detroit 562; Homo sapiens, Detroit 562) was < 5.40, the pIC50 (CAL-12T; Homo sapiens, CAL-12T) was < 5.40 and the pIC50 (HCC1806; Homo sapiens, HCC1806) was < 5.40. The pIC50 (NCI-H1993; Homo sapiens, NCI-H1993) was < 5.40, the pIC50 (CAL-85-1; Homo sapiens, CAL-85-1) was < 5.40 and the pIC50 (BFTC-905; Homo sapiens, BFTC-905) was 5.62. For the same molecule, the pIC50 (SK-OV-3; Homo sapiens, SK-OV-3) was < 5.40, the pIC50 (NCI-H522) was < 5.40 and the pIC50 (KOSC-2; Homo sapiens, KOSC-2) was < 5.40. For the same molecule, the pIC50 (RPMI-2650; Homo sapiens, RPMI-2650) was < 5.40, the pIC50 (GP5d; Homo sapiens, GP5d) was < 5.40 and the pIC50 (KP-N-YN; Homo sapiens, KP-N-YN) was < 5.40. The pIC50 (CHP-212; Homo sapiens, CHP-212) was > 7.81, the pIC50 (HCC38; Homo sapiens, HCC38) was < 5.40 and the pIC50 (KYSE-150 cell line; Homo sapiens, KYSE-150) was < 5.40. For the same molecule, the pIC50 (CAL-51; Homo sapiens, CAL-51) was < 5.40, the pIC50 (NCI-H1792; Homo sapiens, NCI-H1792) was < 5.40 and the pIC50 (RMG-I; Homo sapiens, RMG-I) was < 5.40. The pIC50 (OAW-28; Homo sapiens, OAW-28) was 5.76, the pIC50 (U-251; Homo sapiens, U-251) was < 5.40 and the pIC50 (SJRH30; Homo sapiens, SJRH30) was < 5.40. The pIC50 (MIA PaCa-2; Homo sapiens, MIA PaCa-2) was 6.05, the pIC50 (MHH-ES-1; Homo sapiens, MHH-ES-1) was < 5.40 and the pIC50 (HT-1376; Homo sapiens, HT-1376) was < 5.40. The pIC50 (CAKI-1; Homo sapiens, CAKI-1) was < 5.40, the pIC50 (HuO9; Homo sapiens, HuO9) was < 5.40 and the pIC50 (ABC-1; Homo sapiens, ABC-1) was < 5.40. The pIC50 (M059J; Homo sapiens, M059J) was < 5.40, the pIC50 (D-423MG; Homo sapiens, D-423MG) was < 5.40 and the pIC50 (NCI-H1048; Homo sapiens, NCI-H1048) was < 5.40.
With CO[C@H]1C[C@@H]2CC[C@@H](C)[C@@](O)(O2)C(=O)C(=O)N2CCCC[C@H]2C(=O)O[C@H]([C@H](C)C[C@@H]2CC[C@@H](OC(=O)C(C)(CO)CO)[C@H](OC)C2)CC(=O)[C@H](C)/C=C(\C)[C@@H](O)[C@@H](OC)C(=O)[C@H](C)C[C@H](C)/C=C/C=C/C=C/1C [TEMSIROLIMUS] the pIC50 (ME-180; Homo sapiens, ME-180) was 6.96, the pIC50 (SK-HEP1; Homo sapiens, SK-HEP1) was < 6.70 and the pIC50 (Capan-2; Homo sapiens, Capan-2) was < 6.70. The pIC50 (NCI-H358; Homo sapiens, NCI-H358) was 6.88, the pIC50 (Detroit 562; Homo sapiens, Detroit 562) was < 6.70 and the pIC50 (CAL-12T; Homo sapiens, CAL-12T) was < 6.70. For the same molecule, the pIC50 (HCC1806; Homo sapiens, HCC1806) was < 6.70, the pIC50 (NCI-H1993; Homo sapiens, NCI-H1993) was < 6.70 and the pIC50 (CAL-85-1; Homo sapiens, CAL-85-1) was < 6.70. For the same molecule, the pIC50 (BFTC-905; Homo sapiens, BFTC-905) was < 6.70, the pIC50 (SK-OV-3; Homo sapiens, SK-OV-3) was < 6.70 and the pIC50 (KOSC-2; Homo sapiens, KOSC-2) was 6.78. For the same molecule, the pIC50 (RPMI-2650; Homo sapiens, RPMI-2650) was 6.93, the pIC50 (GP5d; Homo sapiens, GP5d) was < 6.70 and the pIC50 (KP-N-YN; Homo sapiens, KP-N-YN) was < 6.70. For the same molecule, the pIC50 (CHP-212; Homo sapiens, CHP-212) was 7.28, the pIC50 (HCC38; Homo sapiens, HCC38) was < 6.70 and the pIC50 (KYSE-150 cell line; Homo sapiens, KYSE-150) was < 6.70. The pIC50 (CAL-51; Homo sapiens, CAL-51) was < 6.70, the pIC50 (NCI-H1792; Homo sapiens, NCI-H1792) was < 6.70 and the pIC50 (RMG-I; Homo sapiens, RMG-I) was < 6.70. For the same molecule, the pIC50 (A 172; Homo sapiens, A 172) was < 6.70, the pIC50 (OAW-28; Homo sapiens, OAW-28) was < 6.70 and the pIC50 (U-251; Homo sapiens, U-251) was < 6.70. The pIC50 (SJRH30; Homo sapiens, SJRH30) was < 6.70, the pIC50 (MIA PaCa-2; Homo sapiens, MIA PaCa-2) was < 6.70 and the pIC50 (MHH-ES-1; Homo sapiens, MHH-ES-1) was 7.04. The pIC50 (HT-1376; Homo sapiens, HT-1376) was < 6.70, the pIC50 (CAKI-1; Homo sapiens, CAKI-1) was 7.16 and the pIC50 (HuO9; Homo sapiens, HuO9) was 6.75. The pIC50 (ABC-1; Homo sapiens, ABC-1) was < 6.70, the pIC50 (HCT-15; Homo sapiens, HCT-15) was < 6.70 and the pIC50 (M059J; Homo sapiens, M059J) was 6.93. For the same molecule, the pIC50 (D-423MG; Homo sapiens, D-423MG) was < 6.70, the pIC50 (NCI-H1048; Homo sapiens, NCI-H1048) was < 6.70 and the pIC50 (UACC-893; Homo sapiens, UACC-893) was < 6.70.
With CS(=O)(=O)c1ccc(C(=O)Nc2ccc(Cl)c(-c3ccccn3)c2)c(Cl)c1 [VISMODEGIB] the pIC50 (ME-180; Homo sapiens, ME-180) was < 5.00, the pIC50 (SK-HEP1; Homo sapiens, SK-HEP1) was < 5.00 and the pIC50 (Capan-2; Homo sapiens, Capan-2) was < 5.00. The pIC50 (NCI-H358; Homo sapiens, NCI-H358) was < 5.00, the pIC50 (Detroit 562; Homo sapiens, Detroit 562) was < 5.00 and the pIC50 (CAL-12T; Homo sapiens, CAL-12T) was < 5.00. For the same molecule, the pIC50 (HCC1806; Homo sapiens, HCC1806) was < 5.00, the pIC50 (NCI-H1993; Homo sapiens, NCI-H1993) was < 5.00 and the pIC50 (CAL-85-1; Homo sapiens, CAL-85-1) was < 5.00. For the same molecule, the pIC50 (BFTC-905; Homo sapiens, BFTC-905) was < 5.00, the pIC50 (SK-OV-3; Homo sapiens, SK-OV-3) was < 5.00 and the pIC50 (KOSC-2; Homo sapiens, KOSC-2) was < 5.00. The pIC50 (RPMI-2650; Homo sapiens, RPMI-2650) was < 5.00, the pIC50 (GP5d; Homo sapiens, GP5d) was < 5.00 and the pIC50 (KP-N-YN; Homo sapiens, KP-N-YN) was < 5.00. The pIC50 (CHP-212; Homo sapiens, CHP-212) was < 5.00, the pIC50 (HCC38; Homo sapiens, HCC38) was < 5.00 and the pIC50 (KYSE-150 cell line; Homo sapiens, KYSE-150) was < 5.00. The pIC50 (CAL-51; Homo sapiens, CAL-51) was < 5.00, the pIC50 (NCI-H1792; Homo sapiens, NCI-H1792) was < 5.00 and the pIC50 (RMG-I; Homo sapiens, RMG-I) was < 5.00. The pIC50 (A 172; Homo sapiens, A 172) was < 5.00, the pIC50 (OAW-28; Homo sapiens, OAW-28) was < 5.00 and the pIC50 (U-251; Homo sapiens, U-251) was < 5.00. The pIC50 (SJRH30; Homo sapiens, SJRH30) was < 5.00, the pIC50 (MIA PaCa-2; Homo sapiens, MIA PaCa-2) was < 5.00 and the pIC50 (MHH-ES-1; Homo sapiens, MHH-ES-1) was < 5.00. The pIC50 (HT-1376; Homo sapiens, HT-1376) was < 5.00, the pIC50 (CAKI-1; Homo sapiens, CAKI-1) was < 5.00 and the pIC50 (HuO9; Homo sapiens, HuO9) was < 5.00. The pIC50 (ABC-1; Homo sapiens, ABC-1) was < 5.00, the pIC50 (HCT-15; Homo sapiens, HCT-15) was < 5.00 and the pIC50 (M059J; Homo sapiens, M059J) was < 5.00. For the same molecule, the pIC50 (D-423MG; Homo sapiens, D-423MG) was < 5.00, the pIC50 (NCI-H1048; Homo sapiens, NCI-H1048) was < 5.00 and the pIC50 (UACC-893; Homo sapiens, UACC-893) was < 5.00.
In the case of CISPLATIN, the pIC50 (ME-180; me-180) was 4.26, the pIC50 (SK-HEP1; sk-hep-1) was 4.54 and the pIC50 (Capan-2; capan-2) was 3.61. The pIC50 (NCI-H358; nci-h358) was 3.71, the pIC50 (Detroit 562; detroit 562) was 4.42 and the pIC50 (CAL-12T; cal-12t) was 3.20. The pIC50 (HCC1806; hcc1806) was 5.14, the pIC50 (NCI-H1993; nci-h1993) was 2.87 and the pIC50 (CAL-85-1; cal-85-1) was 3.14. The pIC50 (BFTC-905; bftc-905) was 5.59, the pIC50 (SK-OV-3; sk-ov-3) was 3.21 and the pIC50 (KOSC-2; kosc-2) was 5.54. It also gave a pIC50 (RPMI-2650; rpmi-2650) of 4.12, a pIC50 (GP5d; gp5d) of 4.62 and a pIC50 (KP-N-YN; kp-n-yn) of 3.24. The pIC50 (CHP-212; chp-212) was 4.59, the pIC50 (HCC38; hcc38) was 3.80 and the pIC50 (KYSE-150 cell line; kyse-150) was 3.39. For the same molecule, the pIC50 (CAL-51; cal-51) was 4.78, the pIC50 (NCI-H1792; nci-h1792) was 4.83 and the pIC50 (RMG-I; rmg-i) was 2.94. The pIC50 (A 172; a 172) was 4.10, the pIC50 (OAW-28; oaw-28) was 4.64 and the pIC50 (U-251; u-251) was 4.94. The pIC50 (SJRH30; sjrh30) was 4.01, the pIC50 (MIA PaCa-2; mia paca-2) was 5.27 and the pIC50 (MHH-ES-1; mhh-es-1) was 4.26. It also gave a pIC50 (HT-1376; ht-1376) of 4.00, a pIC50 (CAKI-1; caki-1) of 5.14 and a pIC50 (HuO9; huo9) of 4.41. For the same molecule, the pIC50 (ABC-1; abc-1) was 5.44, the pIC50 (HCT-15; hct-15) was 3.57 and the pIC50 (M059J; m059j) was 4.98. It also gave a pIC50 (D-423MG; d-423mg) of 4.86, a pIC50 (NCI-H1048; nci-h1048) of 5.01 and a pIC50 (UACC-893; uacc-893) of 4.58.
